Active and inactive are the calls of the source. The calls are words filed in the database; no cut-off is given here.
Key:
[1] = Toxicity in female C57BL/6 mouse assessed as change in cellular structure of heart at 45 mg/kg, po administered once a day for 2 weeks by H and E staining based analysis; type: organism-based; details: in vivo, 336 h
[2] = Drug concentration in female Sprague-Dawley rat lung at 45 mg/kg, po measured after 8 hrs by LC-MS/MS analysis; type: ADME, organism-based; details: read-out: Ct
Hs 683 [3] = assay: Inhibition of sphere formation in human Hs 683 cells at 4 uM measured after 10 days in well containing 1 cells by microscopic analysis; type: functional, cell-based; details: time 10.0 day
H4 [4] = assay: Inhibition of sphere formation in human H4 cells assessed as fold reduction in sphere initiating frequency at 1 uM incubated for 10 days by microscopic analysis relative to control; type: functional; details: time 10 day
LN-229 [5] = assay: Inhibition of sphere formation in human LN-229 cells at 1 uM measured after 10 days in well containing 1000 cells by microscopic analysis; type: functional, cell-based; details: time 10.0 day
Hs 683 [6] = assay: Inhibition of sphere formation in human Hs 683 cells assessed as fold reduction in sphere initiating frequency at 1 uM incubated for 10 days by microscopic analysis relative to control; type: functional; details: time 10 day
HeLa = assay: Antiproliferative activity against human HeLa cells assessed as inhibition of cell growth incubated for 72 hrs by CCK-8 assay; type: functional, cell-based
LN-229 [7] = assay: Inhibition of sphere formation in human LN-229 cells at 2 uM measured after 10 days in well containing 10000 cells by microscopic analysis; type: functional, cell-based; details: time 10.0 day
[8] = Toxicity in female C57BL/6 mouse assessed as change in cellular structure of stomach at 45 mg/kg, po administered once a day for 2 weeks by H and E staining based analysis; type: organism-based; details: in vivo, 336 h
[9] = target: BUB3-interacting and GLEBS motif-containing protein ZNF207 (Homo sapiens, UniProt O43670); assay: Binding affinity to ZNF207 in human H4 cells assessed as thermal stabilization by measuring increase in melting temperature at 30 uM incubated for 3 hrs by CETSA; type: cell-based
BUB3-interacting and GLEBS motif-containing protein ZNF207, sequence (O43670 whole entry): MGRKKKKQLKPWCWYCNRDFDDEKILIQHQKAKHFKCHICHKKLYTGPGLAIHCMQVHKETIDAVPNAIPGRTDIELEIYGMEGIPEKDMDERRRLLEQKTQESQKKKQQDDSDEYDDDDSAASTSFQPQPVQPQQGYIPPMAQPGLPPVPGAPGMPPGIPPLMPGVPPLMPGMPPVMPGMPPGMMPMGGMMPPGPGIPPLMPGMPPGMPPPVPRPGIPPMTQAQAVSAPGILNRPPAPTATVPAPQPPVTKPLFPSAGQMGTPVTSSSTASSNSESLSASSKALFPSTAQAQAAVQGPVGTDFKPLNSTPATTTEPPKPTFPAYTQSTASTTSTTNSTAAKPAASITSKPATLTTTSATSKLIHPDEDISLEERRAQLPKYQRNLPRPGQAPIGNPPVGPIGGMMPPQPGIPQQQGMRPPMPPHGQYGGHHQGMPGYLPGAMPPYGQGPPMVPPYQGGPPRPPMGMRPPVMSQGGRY

[10] = Toxicity in female C57BL/6 mouse assessed as change in cellular structure of thymus at 45 mg/kg, po administered once a day for 2 weeks by H and E staining based analysis; type: organism-based; details: in vivo, 336 h
[11] = Drug concentration in male Sprague-Dawley rat spleen at 45 mg/kg, po measured after 8 hrs by LC-MS/MS analysis; type: ADME, organism-based; details: read-out: Ct
A549 = assay: Antiproliferative activity against human A549 cells assessed as inhibition of cell growth incubated for 72 hrs by CCK-8 assay; type: functional, cell-based; details: A549, 72 h
[12] = Drug concentration in female Sprague-Dawley rat liver at 45 mg/kg, po measured after 8 hrs by LC-MS/MS analysis; type: ADME, organism-based; details: read-out: Ct
[13] = Drug concentration in male Sprague-Dawley rat kidney at 45 mg/kg, po measured after 8 hrs by LC-MS/MS analysis; type: ADME, organism-based; details: read-out: Ct
LN-229-Luc [14] = assay: Antitumor activity against human Ln-229-Luc cells xenografted in BALB/c nude mouse assessed as increase in overall survival time at 45 mg/kg, po administered once a day and measured after 3 to 31 days; type: functional, organism-based; details: time 3-31 day
H4 [15] = assay: Inhibition of sphere formation in human H4 cells at 4 uM measured after 10 days in well containing 1 cells by microscopic analysis; type: functional, cell-based; details: time 10.0 day
LN-229 [16] = assay: Inhibition of sphere formation in human LN-229 cells at 8 uM measured after 10 days in well containing 10000 cells by microscopic analysis; type: functional, cell-based; details: time 10.0 day
U-251 [17] = assay: Inhibition of sphere formation in human U-251MG cells at 4 uM measured after 10 days in well containing 10000 cells by microscopic analysis; type: functional, cell-based; details: time 10.0 day
LN-229 [18] = assay: Inhibition of colony formation in human LN-229 cells assessed as reduction in colony area at 2.5 uM treated on day 1 and measured after 14 days by crystal violet staining based microscopic analysis relative to control; type: functional; details: LN-229, 336 h, time 14 day
[19] = Drug concentration in male Sprague-Dawley rat liver at 45 mg/kg, po measured after 8 hrs by LC-MS/MS analysis; type: ADME, organism-based; details: read-out: Ct
[20] = Toxicity in female C57BL/6 mouse assessed as change in cellular structure of brain at 45 mg/kg, po administered once a day for 2 weeks by H and E staining based analysis; type: organism-based; details: in vivo, 336 h
[21] = Drug concentration in male Sprague-Dawley rat brain at 45 mg/kg, po measured after 8 hrs by LC-MS/MS analysis; type: ADME, organism-based; details: read-out: Ct
[22] = Toxicity in female C57BL/6 mouse assessed as change in cellular structure of intestine at 45 mg/kg, po administered once a day for 2 weeks by H and E staining based analysis; type: organism-based; details: in vivo, 336 h
LN-229-Luc [23] = assay: Antitumor activity against human Ln-229-Luc cells xenografted in po dosed BALB/c nude mouse administered once a day and measured after 3 to 31 days; type: functional, organism-based; details: dose 15-45 mg/kg, time 3-31 day
Hs 683 [24] = assay: Inhibition of sphere formation in human Hs 683 cells assessed as fold reduction in sphere initiating frequency at 4 uM incubated for 10 days by microscopic analysis relative to control; type: functional; details: time 10 day
H4 [25] = assay: Inhibition of sphere formation in human H4 cells at 8 uM measured after 10 days in well containing 1 cells by microscopic analysis; type: functional, cell-based; details: time 10.0 day
MKN-45 = assay: Antiproliferative activity against human MKN-45 cells assessed as inhibition of cell growth incubated for 72 hrs by CCK-8 assay; type: functional, cell-based; details: MKN-45, 72 h
[26] = Drug uptake in Sprague-Dawley rat blood at 10 to 90 ng/ml, po administered as single dose and measured after 8 hrs by LC-MS/MS analysis; type: ADME, organism-based; details: in vivo, dose 10-90 ng/ml
U-251 [27] = assay: Inhibition of sphere formation in human U-251MG cells at 2 uM measured after 10 days in well containing 1 cells by microscopic analysis; type: functional, cell-based; details: time 10.0 day
LN-229 [28] = assay: Inhibition of sphere formation in human LN-229 cells at 4 uM measured after 10 days in well containing 10 cells by microscopic analysis; type: functional, cell-based; details: time 10.0 day
MDR1 = assay: Apparent permeability across apical to basolateral side in MDCKII-MDR1 cells at 1 uM incubated for 2 hrs by LC-MS/MS analysis; type: ADME, cell-based, Canis lupus familiaris; details: dog, MDCK-MDR1
Hs 683 [29] = assay: Inhibition of sphere formation in human Hs 683 cells at 1 uM measured after 10 days in well containing 10000 cells by microscopic analysis; type: functional, cell-based; details: time 10.0 day
H4 [30] = assay: Inhibition of sphere formation in human H4 cells at 4 uM measured after 10 days in well containing 100 cells by microscopic analysis; type: functional, cell-based; details: time 10.0 day
U-251 [31] = assay: Inhibition of sphere formation in human U-251MG cells at 4 uM measured after 10 days in well containing 1 cells by microscopic analysis; type: functional, cell-based; details: time 10.0 day
H4 [32] = assay: Inhibition of sphere formation in human H4 cells assessed as fold reduction in sphere initiating frequency at 4 uM incubated for 10 days by microscopic analysis relative to control; type: functional; details: time 10 day
LN-229 [33] = assay: Inhibition of sphere formation in human LN-229 cells assessed as fold reduction in sphere initiating frequency at 4 uM incubated for 10 days by microscopic analysis relative to control; type: functional; details: time 10 day
Hs 683 [34] = assay: Inhibition of sphere formation in human Hs 683 cells at 4 uM measured after 10 days in well containing 10000 cells by microscopic analysis; type: functional, cell-based; details: time 10.0 day
H4 [35] = assay: Inhibition of sphere formation in human H4 cells at 8 uM measured after 10 days in well containing 10000 cells by microscopic analysis; type: functional, cell-based; details: time 10.0 day

For N#CC1(C(=O)NCCC2CCN(Cc3ccccc3)CC2)CC2(Br)c3ccccc3C1c1ccccc12 (racemic), the Activity [1] was “Non-Toxic”, the concentration at 8 h [2] was 6360 ng/g and the inhibition (Hs 683 [3]) was “Active”. The “fold change (FC)” value (H4 [4]) was 14.09, the inhibition (LN-229 [5]) was “inactive” and the “fold change (FC)” value (Hs 683 [6]) was 2.8. The IC50 (HeLa) was 8.13 µM, the inhibition (LN-229 [7]) was “inactive” and the Activity [8] was “Non-Toxic”. The ΔTm [9] was 1.9 °C, the Activity [10] was “Non-Toxic” and the concentration at 8 h [11] was 655 ng/g. It also gave an IC50 (A549) of 9.68 µM, a concentration at 8 h [12] of 1400 ng/g and a concentration at 8 h [13] of 85.1 ng/g. The Activity (LN-229-Luc [14]) was “Active”, the inhibition (H4 [15]) was “Active” and the inhibition (LN-229 [16]) was “inactive”. For the same molecule, the inhibition (U-251 [17]) was “inactive”, the inhibition at 2.5 µM (LN-229 [18]) was 100% and the concentration at 8 h [19] was 779 ng/g. For the same molecule, the Activity [20] was “Non-Toxic”, the concentration at 8 h [21] was 9.2 ng/g and the Activity [22] was “Non-Toxic”. For the same molecule, the Activity (LN-229-Luc [23]) was “Dose-Dependent Effect”, the “fold change (FC)” value (Hs 683 [24]) was 39.23 and the inhibition (H4 [25]) was “Active”. For the same molecule, the IC50 (MKN-45) was 3.84 µM, the Drug uptake [26] was “Active” and the inhibition (U-251 [27]) was “Active”. For the same molecule, the inhibition (LN-229 [28]) was “Active”, the Papp A→B at 2 h, 1 µM (MDR1) was 1.26 ×10⁻⁶ cm/s and the inhibition (Hs 683 [29]) was “inactive”. The inhibition (H4 [30]) was “Active”, the inhibition (U-251 [31]) was “Active” and the “fold change (FC)” value (H4 [32]) was 32.7. For the same molecule, the “fold change (FC)” value (LN-229 [33]) was 36.42, the inhibition (Hs 683 [34]) was “inactive” and the inhibition (H4 [35]) was “inactive”.

Reference: ChEMBL document CHEMBL5528066, “Discovery of Novel N-(Anthracen-9-ylmethyl) Benzamide Derivatives as ZNF207 Inhibitors Promising in Treating Glioma” (J Med Chem, 2024)
